In US5206029A, “Medicament and its production and use in the treatment of pain, inflammation and fever in man and animals” (PAZ Arzneimittel-Entwicklungsgesellschaft mbH, priority 1990, dated 1993):

Assays:
[1] = tested on: interleukin 1-induced pain; assay: interleukin 1-induced pain test in rats; format: in vivo, rat; settings: FIG. 2
Excerpt: (§1) This unexpected result was verified by investigations in two animal models (mouse and rat).
(§2) FIGS. 1-4 are graphs of tests in rats for cramp pain, interleukin-1-inducedpain, prostaglandin production and carrageenin-induced paw oedema for the R(-) and S(+) enantiomers of flurbiprofen, […]

[2] = tested on: gastro-intestinal mucosa; assay: gastrointestinal toxicity in the rat (gastric ulcer index, intestinal ulcer); format: in vivo
Procedure: Each of the test groups were sacrificed after 24 hours, the stomach and intestines were removed and the stomach opened and cleaned with salt solution. The number of ulcerations multiplied with the diameter thereof in mm. is given as the "gastric ulcer index". The unopened small intestine was investigated for white and brown color changes. The corresponding sections were cut out and the weight thereof in comparison with the total weight plotted in % as "intestinal ulcer". The results are significant in the t-test in comparison with the control.

[3] = tested on: cramp pain; assay: cramp pain test in mice; format: in vivo, mouse; settings: FIG. 1
Excerpt: as §1, §2

[4] = tested on: carrageenin-induced paw oedema; assay: carrageenin-induced paw oedema of the rat; format: in vivo, rat (male Sprague-Dawley); settings: for oedema inhibition: 0.3 mg./kg. per os, paw volume after 3 hours p.a., FIG. 4
Procedure: To male Sprague-Dawley rats, each with a body weight of 120 to 150 g., were administered per os with a stomach probe the test substances (0.3 mg./kg. body weight). Immediately thereafter, into the left rear paw was injected subplantary 0.1 ml. of a.1% carrageenin solution in order to induce oedema. After 3 hours p.a., the paw volumes were determined by means of a plethysmometer (modified method according to Hofrichter).

[5] = parameters: species or system mouse and rat; settings: in vivo
Excerpt: as §1

[6] = tested on: post-episiotomy pain; settings: half dosage; A. Sunshine et al., Clin. Pharmacol Ther. 1987; cited from earlier work
[7] = tested on: macrophages (peritoneum of the mouse); assay: inhibition of prostaglandin liberation on macrophages (peritoneum of the mouse); format: cell-based
Procedure: Furthermore, contrary to the published state of knowledge (v. supra), S(+)-flurbiprofen in the case of administration after episiotomy is preferably effective antiphlogistically and not preferably analgesically. This further surprising test result was tested on two inflammation models selected independently of one another.

SMILES | analgesic effectiveness in the interleukin 1-induced pain test, R- versus S-enantiomer [1] | toxicity on the gastrointestinal tract, compared with the racemate or the S(+)-enantiomer ([2]; summary statement) | analgesic effectiveness in the cramp pain test, R- versus S-enantiomer [3] | oedema inhibition [4] | inversion after administration [5] | damage of the gastro-intestinal mucosa ([2]; rat, in vivo) | analgesic effectiveness compared with the racemate [6] | inflammation-inhibiting action in carrageenin paw oedema, compared with the R(-)-form ([4]; rat, FIGS. 3 and 4) | inhibition of the liberation of prostaglandin, compared with the R(-)-form [7]
C[C@@H](C(=O)O)c1ccc(-c2ccccc2)c(F)c1 [R(-)-flurbiprofen] | equal or even more effective by about one third to a half | lower grade toxicity on the gastrointestinal tract than the racemate or the S(+)-enantiomer | equal or even more effective by about one third to a half | 18% | no or only a very small inversion | – | – | – | –
C[C@H](C(=O)O)c1ccc(-c2ccccc2)c(F)c1 [S(+)-flurbiprofen] | – | – | – | 64% | no or only a very small inversion | only S(+)-flurbiprofen caused damage | already more effective at half dosage | superior in its inflammation-inhibiting action to the R(-)-form | inhibits the liberation of prostaglandin more markedly than the R(-)-form
